Reference: article PMC8691691 (ACS Chemical Neuroscience, 2021)
Numbering of substitutions follows the chain as printed. Where two headings read alike, the source gives them in different places.

Key:
Assay in all cases: [3H]glycine transport by GlyT2 mutant in COS7 cells
Type in all cases: cell-based
GlyT2 F478Y mutant = target: T1, GlyT2 F478Y mutant (Rattus norvegicus, UniProt P58295, F478Y)
T1 construct: expressed in transfected cells; host or cells: COS7
T1 sequence (P58295 1-799 F478Y): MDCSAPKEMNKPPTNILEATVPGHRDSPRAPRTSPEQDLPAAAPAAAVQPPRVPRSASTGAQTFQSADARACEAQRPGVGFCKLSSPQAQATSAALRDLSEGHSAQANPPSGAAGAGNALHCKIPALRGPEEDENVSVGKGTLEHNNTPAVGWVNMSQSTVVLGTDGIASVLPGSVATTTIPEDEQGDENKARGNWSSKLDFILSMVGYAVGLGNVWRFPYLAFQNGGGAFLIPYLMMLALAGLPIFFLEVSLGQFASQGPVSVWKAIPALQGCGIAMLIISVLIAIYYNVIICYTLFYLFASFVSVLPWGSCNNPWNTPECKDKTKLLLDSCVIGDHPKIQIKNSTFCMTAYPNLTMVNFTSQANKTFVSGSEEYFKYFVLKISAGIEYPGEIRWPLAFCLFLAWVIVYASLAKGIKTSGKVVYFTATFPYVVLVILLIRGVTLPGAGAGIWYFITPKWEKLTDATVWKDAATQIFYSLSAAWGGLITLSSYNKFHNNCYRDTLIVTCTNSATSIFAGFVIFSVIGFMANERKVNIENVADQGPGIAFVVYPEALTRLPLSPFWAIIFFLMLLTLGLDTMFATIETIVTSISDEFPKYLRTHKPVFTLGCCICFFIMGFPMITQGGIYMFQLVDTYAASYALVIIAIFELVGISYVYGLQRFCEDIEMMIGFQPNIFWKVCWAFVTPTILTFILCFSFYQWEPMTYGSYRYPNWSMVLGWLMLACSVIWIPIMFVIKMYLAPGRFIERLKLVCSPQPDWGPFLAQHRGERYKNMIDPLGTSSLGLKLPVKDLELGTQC
Description: (§1) To validate the predicted interactions between the inhibitors and GlyT2, we used systematic site-directed mutagenesis to construct substitution mutants of the potential residues involved in ligand binding. […] The GlyT2 residues predicted to interact with the inhibitors through its side chain were replaced by amino acids expected to force the loss of the interaction. In the cases where the interaction occurred through the backbone, the inserted amino acid sought to alter the disposition of the substituted residue to lose the coordination.
(§2) Substitution mutants were generated with the QuikChange II Site-Directed Mutagenesis kit (Agilent Technologies, Santa Clara, CA, USA), using rGlyT2 or rGlyT1 subcloned in pCDNA3.[47] The complete coding region of all of the constructs was sequenced to verify that only the desired mutation had been introduced. […] COS7 cells were grown and transfected using Turbofect Transfection Reagent (Thermo Fisher Scientific, Waltham, MA, USA), following the manufacturer’s protocol (2 μL reagent/μg of DNA). Cells were incubated for 48 h at 37 °C until used.
(§3) At the end of the desired time (usually 10 min), reactions were washed and terminated by aspiration. […] A nonlinear curve fitting method was used to obtain IC50 values using Graphpad Prism software, version 6.0, Graphpad, San Diego, CA, USA.

GlyT2 I292C mutant = target: T2, GlyT2 I292C mutant (Rattus norvegicus, UniProt P58295, I292C)
T2 construct: expressed in transfected cells; host or cells: COS7
T2 sequence (P58295 1-799 I292C): T1 sequence (P58295 1-799 F478Y) with I292C, Y478F
Description: as §1, §2, §3

GlyT2 T580C mutant = target: T3, GlyT2 T580C mutant (Rattus norvegicus, UniProt P58295, T580C)
T3 construct: expressed in transfected cells; host or cells: COS7
T3 sequence (P58295 1-799 T580C): T1 sequence (P58295 1-799 F478Y) with Y478F, T580C
Description: as §1, §2, §3

IC50 (GlyT2 F478Y mutant; read-out: IC50 (Table S1)) [nM]	IC50 (GlyT2 I292C mutant; read-out: IC50 (Table S1)) [nM]	IC50 (GlyT2 T580C mutant; read-out: IC50 (Table S1)) [nM]	SMILES	IC50 (GlyT2 F478Y mutant) [nM]	IC50 (GlyT2 I292C mutant) [nM]	IC50 (GlyT2 T580C mutant) [nM]
50 ± 5	36 ± 4	84 ± 9	N[C@@H](COC(c1cccc(F)c1)c1ccccc1OCc1ccccc1)C(=O)O (stereo partly drawn) [ALX1393]	–	–	–
–	–	–	COc1cc(C(=O)NCC2(N(C)C)CCCC2)cc(OC)c1OCc1ccccc1 [ORG25543, N-[[1-(dimethylamino)cyclopentyl]methyl]-3,5-dimethoxy-4-(phenylmethoxy)benzamide]	19 ± 7	24 ± 3	96 ± 10
